“And” between values parts separate entries of the source, which are not always exact repeats. Equal values may be shown once.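 Where inhibition never reached the appropriate level, the endpoint shown equals the highest concentration tested. Otherwise, values were interpolated linearly from a five-concentration, 48-hour dose response in 96-well plates. GI50 marks 50% less growth. TGI: total growth inhibition.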
Assays:
Assay in all cases: NCI tumour cell line growth inhibition, 48 h
[1] = system: HS 578T breast
[2] = system: NCI-H226 lung
[3] = system: SF-539 CNS
[4] = system: SF-295 CNS
[5] = system: OVCAR-3 ovarian
[6] = system: HCC-2998 colon
[7] = system: KM12 colon
[8] = system: OVCAR-4 ovarian
[9] = system: ACHN renal

| SMILES | TGI [1] | TGI [2] | TGI [3] | TGI [4] | TGI [5] | TGI [6] | TGI [7] | TGI [8] | TGI [9] | GI50 [8] | GI50 [2] | GI50 [4] | GI50 [7] | GI50 [9] | GI50 [1] | GI50 [3] |
| --- | --- | --- | --- | --- | --- | --- | --- | --- | --- | --- | --- | --- | --- | --- | --- | --- |
| O=C(N/N=C/c1ccccc1)c1c(F)c(F)c(F)c(F)c1F | > 100 µM | > 100 µM | > 100 µM | > 100 µM | > 100 µM | > 100 µM | > 100 µM | > 100 µM | > 100 µM |  |  |  |  |  |  |  |
| CC(C)(NO)/C(=N\O)c1ccccc1 |  | > 10 µM |  | > 10 µM | > 10 µM | > 10 µM | > 10 µM | > 10 µM | > 10 µM |  |  |  |  |  |  |  |
| CC1CC(c2ccccc2)=Nc2ccccc2S1 (stereo not drawn) |  | > 100 µM | > 100 µM | > 100 µM |  | > 100 µM | > 100 µM | > 100 µM | > 100 µM |  |  |  |  |  |  |  |
| C=CCOC(C)(C)C1=CCC(C)CC1 (stereo not drawn) | > 100 µM |  | > 100 µM | > 100 µM | > 100 µM | > 100 µM | > 100 µM | > 100 µM | > 100 µM |  |  |  |  |  |  |  |
| CCCCCCCCCCCC1=C(O)C(=O)C(CC2=C(O)C(=O)C(CCCCCCCCCCC)=C(O)C2=O)=C(O)C1=O | > 100 µM | > 100 µM | > 100 µM | > 100 µM |  | > 100 µM | > 100 µM | > 100 µM | > 100 µM |  |  |  |  |  |  |  |
| Cc1ccc(S(=O)(=O)N/N=c2/sc3ccccc3n2C)cc1 | > 100 µM | > 100 µM | > 100 µM | > 100 µM |  | > 100 µM | > 100 µM | > 100 µM | > 100 µM |  |  |  |  |  |  |  |
| O=C(/C=C/c1ccccc1)c1cc(CN2CCOCC2)c(O)c(CN2CCOCC2)c1 | > 100 µM | 64.9 µM | 32.6 µM | 34.8 µM | 29.4 µM | 33.7 µM | 33.1 µM |  | 8.26 µM |  |  |  |  |  |  |  |
| O=C(OCCN=c1c2ccccc2ccc2ccccc12)c1cc([N+](=O)[O-])cc([N+](=O)[O-])c1 | > 100 µM | > 100 µM | > 100 µM | > 100 µM | > 100 µM |  | > 100 µM | > 100 µM | > 100 µM |  |  |  |  |  |  |  |
| Cc1cccc2c1nc1n2C(=O)c2ccccc2-1 |  | > 100 µM | > 100 µM | > 100 µM | > 100 µM | > 100 µM | > 100 µM | > 100 µM | > 100 µM |  |  |  |  |  |  |  |
| COc1ccccc1N=Nc1c(O)ccc2ccccc12 | > 100 µM |  |  | 48.3 µM and 78.2 µM | > 100 µM | 71 µM | > 100 µM | 62.9 µM and 95.2 µM | 27.2 µM | 10.2 µM and 35.4 µM |  |  |  |  |  |  |
| O=C(O)C1CCC(=O)N1C(=O)COc1cc(Cl)c(Cl)cc1Cl (stereo not drawn) |  | > 100 µM |  | > 100 µM | > 100 µM |  | > 100 µM | > 100 µM | > 100 µM |  |  |  |  |  |  |  |
| O=C1c2ccccc2-c2c1c1ccccc1c(=O)n2CCCNCCNCCCn1c2c(c3ccccc3c1=O)C(=O)c1ccccc1-2 |  | 1.98 µM |  | 2.32 µM |  |  | 0.415 µM | 4.56 µM | 1.31 µM | 0.694 µM | < 0.0267 µM | 0.0782 µM | < 0.04 µM | < 0.01 µM |  |  |
| CC(=O)O[C@H]1CC[C@@H](OC(C)=O)[C@H]2[C@H](O)[C@H](O)[C@@H]1n1c(=O)n(-c3ccccc3)c(=O)n12 | > 100 µM | > 100 µM | > 100 µM | > 100 µM | > 100 µM |  | > 100 µM | > 100 µM | > 100 µM |  |  |  |  |  |  |  |
| O=C(/C=C\c1ccccc1)Oc1ccc(/C=C2\CCC/C(=C\c3ccc(OC(=O)/C=C\c4ccccc4)cc3)C2=O)cc1 | > 100 µM |  | > 100 µM | > 100 µM | > 100 µM | > 100 µM | > 100 µM | > 100 µM | > 100 µM |  |  |  |  |  |  |  |
| Nc1c(C(=O)O)c2ccc([N+](=O)[O-])cc2c(=O)n1-c1nc2ccccc2s1 | > 100 µM | > 100 µM |  | > 100 µM | > 100 µM | > 100 µM | > 100 µM | > 100 µM | > 100 µM |  |  |  |  |  |  |  |
| COC1=C(OC)C(=O)C(Cc2c(Cl)nc3sccn23)=C(C)C1=O | 50.3 µM |  | 25 µM | 25.4 µM | 25.8 µM | 32.1 µM | 22.3 µM | 18.8 µM | 27.8 µM |  |  |  |  |  |  |  |
| COc1ccc(O[C@H](CO)C[C@@H]2COC(C)(C)O2)cc1 |  | > 100 µM | > 100 µM | > 100 µM | > 100 µM | > 100 µM | > 100 µM | > 100 µM | > 100 µM |  |  |  |  |  |  |  |
| CCOC(=O)N1CCNCCN(C(=O)OCC)CCNCC1 | > 100 µM | > 100 µM | > 100 µM | > 100 µM | > 100 µM | > 100 µM |  | > 100 µM | > 100 µM |  |  |  |  |  |  |  |
| Cc1ccc(S(=O)(=O)OCCN(CCOS(=O)(=O)c2ccc(C)cc2)c2ccc(C=O)cc2)cc1 | > 100 µM |  | > 100 µM | > 100 µM | 56 µM | 85.5 µM | 53 µM | 44.3 µM | > 100 µM |  |  |  |  |  |  |  |
| Cc1nc(C(=Nc2ccc(Br)cc2)Nn2cnnc2)no1 | > 100 µM |  |  | > 100 µM | > 100 µM | > 100 µM | > 100 µM | > 100 µM | > 100 µM |  |  |  |  |  |  |  |
| CC(C)(C)C(=O)c1c(O)c2ccccc2c2ccccc2c1=O | > 100 µM | > 100 µM | > 100 µM | > 100 µM | > 100 µM |  | > 100 µM | > 100 µM | > 100 µM |  |  |  |  |  |  |  |
| COC(=O)C(Cc1ccccc1)NC(=O)C(CNC(=O)OCc1ccccc1)C(=O)OCc1ccccc1 (stereo not drawn) | > 100 µM | > 100 µM |  | > 100 µM and 80.2 µM | > 100 µM | > 100 µM | > 100 µM |  |  |  |  | > 100 µM and 28.6 µM |  |  | 59 µM |  |
| CCc1c(O)nc(Nc2nc3ccccc3[nH]2)[nH]c1=O | > 100 µM | > 100 µM | > 100 µM | > 100 µM | > 100 µM | > 100 µM |  | > 100 µM | > 100 µM |  |  |  |  |  |  |  |
| COc1ccc2oc(=O)c(-c3cc4c(c(C)n3)c(=O)oc3ccc(OC)cc34)cc2c1 | 83.5 µM | > 100 µM | > 100 µM | > 100 µM | > 100 µM | > 100 µM | > 100 µM |  | 86 µM |  |  |  |  |  |  |  |
| NCCCNc1nc2ccccc2c2c(=O)c3cc(Cl)ccc3sc12 | 5.24 µM | 74.2 µM | 3.15 µM |  |  |  |  |  | 2.92 µM |  | 8.54 µM |  |  | 1.57 µM | 2.01 µM | 1.72 µM |
